One data set has as its system MDA-MB-468 cells. The data set can be described thus: Primary tumor xenograft, MDA-MB-468 cells in mammary fat pad. It is filed as in vivo. The conditions noted are these: 12 days. The method, then: In yet another xenograft experiment, mice were injected with MDA-MB-468 cells via mammary fat pad, and were randomized following injection. Mice were treated with MBE1.5 (25 mg/kg daily, n=6) or vehicle (n=12), and paclitaxel (12.5 mg/kg every other day) for 12 days. Primary tumor measurements were taken by caliper between each treatment group.

Another data set concerns the target T1, Aldh3a1 (Homo sapiens, UniProt P30838).
T1 construct: expressed in transfected cells; host or cells: MCF7, lentiviral pLex vector
T1 sequence (P30838 1-453): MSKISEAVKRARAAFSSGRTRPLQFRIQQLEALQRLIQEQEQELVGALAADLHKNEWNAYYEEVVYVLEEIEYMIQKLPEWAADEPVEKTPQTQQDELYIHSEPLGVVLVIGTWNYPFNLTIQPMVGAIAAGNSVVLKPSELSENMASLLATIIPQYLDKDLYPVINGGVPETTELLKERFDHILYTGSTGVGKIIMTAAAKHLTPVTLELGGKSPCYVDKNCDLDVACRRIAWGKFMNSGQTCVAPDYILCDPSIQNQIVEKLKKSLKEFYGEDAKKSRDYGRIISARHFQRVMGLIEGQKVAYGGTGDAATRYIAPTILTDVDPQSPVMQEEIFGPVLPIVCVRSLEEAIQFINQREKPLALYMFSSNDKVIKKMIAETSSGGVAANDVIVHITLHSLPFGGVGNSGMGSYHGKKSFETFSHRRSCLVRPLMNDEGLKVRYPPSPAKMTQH
The data set can be described thus: ALDEFLUOR assay in MCF7 cells transduced with human Aldh3a1. It is filed as cell-based. The conditions noted are these: concentrations below 10 μM. Here is the method:
(§1) The coding sequences of Aldh1a1, Aldh1a2, Aldh1a3 and Aldh3a1 were cloned from cDNA made from pooled human reference RNA samples. Cloned sequences flanked by Age1 and Xho1 restriction sites were inserted into the pLex lentiviral plasmid. Clones were sequenced and compared against NCBI expressed sequence tags (ESTs) for accuracy. […]. Viruses were collected and filtered at 0.45 μm, then cells were transduced using polybrene (8 μg/mL) for 12 hours, followed by culture with 1 μg/mL puromycin for the duration of experiments. All viral transduction and selection was performed on a cell population-wide basis.
(§2) Cells were counted, centrifuged and resuspended at 1,000,000 cells/mL in ALDEFLUOR™ buffer (Stemcell Technologies). ALDEFLUOR™ substrate (Stemcell Technologies, 1:200) and test compound or 1 mM DEAB were added to cell suspension and incubated at 37° C. for 45 minutes with vortexing every 15 minutes. Cells were centrifuged and resuspended in ALDEFLUOR™ buffer with DAPI at 5 μg/mL. Samples were analyzed with the BD LSR2 flow cytometry platform. Gating was performed using DEAB as a negative control.

Another data set concerns the target T2, Aldh1a1 (Homo sapiens, UniProt P00352).
T2 construct: expressed in transfected cells; host or cells: MCF7, lentiviral pLex vector
T2 sequence (P00352 1-501): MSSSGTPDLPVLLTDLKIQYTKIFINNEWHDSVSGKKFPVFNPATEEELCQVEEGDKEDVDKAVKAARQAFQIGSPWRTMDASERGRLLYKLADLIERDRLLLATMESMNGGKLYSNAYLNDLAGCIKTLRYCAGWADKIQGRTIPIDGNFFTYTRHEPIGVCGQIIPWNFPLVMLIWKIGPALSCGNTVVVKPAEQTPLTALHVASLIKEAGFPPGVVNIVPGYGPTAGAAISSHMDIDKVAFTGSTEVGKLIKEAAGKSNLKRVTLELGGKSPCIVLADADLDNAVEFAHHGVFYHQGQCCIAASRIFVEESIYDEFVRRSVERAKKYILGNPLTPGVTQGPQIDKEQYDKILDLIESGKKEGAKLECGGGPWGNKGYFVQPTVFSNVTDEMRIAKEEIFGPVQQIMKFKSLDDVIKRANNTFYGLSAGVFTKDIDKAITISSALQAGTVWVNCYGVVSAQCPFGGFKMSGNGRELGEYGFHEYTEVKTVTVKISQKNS
The data set can be described thus: ALDEFLUOR assay in MCF7 cells transduced with human Aldh1a1. It is filed as cell-based. The following applies: concentrations below 10 μM. Here is the method: as §1, §2

Data set [1] concerns SUM159-M1a cells. The data set is described as follows: Lung metastasis xenograft, SUM159-M1a cells by tail vein injection, BLI. The conditions noted are these: MBE1 IP in conjunction with paclitaxel, tail vein injection model. It is filed as in vivo, mouse. The method, then: (§3) All xenograft experiments were conducted on 8-week old female mice (athymic Nu/Nu, or NOD/SCID Gamma). Xenograft experiments were conducted using 125,000 SUM159-M1a cells in 100 μL PBS for tail vein or intracardiac injection. Mice were randomized following injection. Bioluminescent imaging (BLI) was conducted using the IVIS 200 system and retroorbital luciferin injection. For drug treatment, MBE1 (prepared as above) was given to mice via IP injection in conjunction with paclitaxel (5 mg/mL in 10% ethanol, 10% Kolliphor EL, 80% PBS) at the time intervals and dosages indicated in FIG. 5A (tail vein injection) and FIG. 6A (intracardiac injection).
(§4) FIG. 5B is a line graph of lung metastasis, as measured using bioluminescence imaging (BLI), versus time (days), and compares lung metastasis in the presence and absence of MBE1 in the mice from the experiment outlined in FIG. 5A. FIG. 6B is a line graph of bone metastasis, as measured using BLI, versus time (days), and compares bone metastasis in the presence and absence of MBE1 in the mice from the experiment outlined in FIG. 6A.

For data set [2], the system named is SUM159-M1a cells. The data set is described as follows: Bone metastasis xenograft, SUM159-M1a cells by intracardiac injection, BLI. It is filed as in vivo, mouse. The conditions noted are these: MBE1 IP in conjunction with paclitaxel, intracardiac injection model. Here is the method: as §3, §4

Regarding `CCc1ccccc1C(=O)Nc1cc2c(cc1F)NC(=O)CC2` [MBE1.5, 2-ethyl-N-(7-fluoro-2-oxo-1,2,3,4-tetrahydroquinolin-6-yl)benzamide], the complete tumor elimination entry in the data set on MDA-MB-468 cells (25 mg/kg daily (n=6) with paclitaxel 12.5 mg/kg every other day) is listed as “tumors of two mice in the MBE1.5 treatment group were completely eliminated”. The “gross toxicity, body mass (FIG. 15A)” value in the data set on MDA-MB-468 cells (25 mg/kg daily with paclitaxel 12.5 mg/kg every other day) is given as “no gross toxicity”. Further, in the data set with MDA-MB-468 cells (25 mg/kg daily with paclitaxel 12.5 mg/kg every other day, MDA-MB-468 primary tumors), the “tumor volume (FIG. 15B)” value is listed as “caused regression of primary breast tumors”.
As to `CCc1cnccc1C(=O)Nc1cc2c(cc1F)NC(=O)CC2` [MBE1, 3-ethyl-N-(7-fluoro-2-oxo-1,2,3,4-tetrahydroquinolin-6-yl)isonicotinamide], the “inhibition of Aldh3a1 activity (FIG. 2A)” value on Aldh3a1 is given as “does not inhibit”. Also, the “inhibition of Aldh1a1 activity (FIG. 2A)” value on Aldh1a1 is “does not inhibit”. In addition, in the data set on SUM159-M1a cells [1], the “lung metastasis by BLI (FIG. 5B)” value is given as “effective therapeutic to treat established metastatic disease”. Further, in the data set on SUM159-M1a cells [2], the “bone metastasis by BLI (FIG. 6B)” value is “effective therapeutic to treat established metastatic disease”.

The values are drawn from US12162855B2, “Tetrahydroquinolino derivatives for the treatment of metastatic and chemoresistant cancers” (THE TRUSTEES OF PRINCETON UNIVERSITY, priority 2018, dated 2024).
